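Results reflect a 48-hour exposure of cells in 96-well plates to compound at five concentrations. TGI denotes the concentration required for complete inhibition of growth.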

For the test, the system named is SN12K1 renal. Put plainly: inhibition of tumour cell growth, NCI panel, 48 h.

For the molecule `C=C1C(O)C2(O)OCC34C(CC5C(C)=CC(=O)C(O)C5(C)C23)OC(=O)C(OC(=O)C/C=C/CCCCCCCC)C14` (stereo unspecified), the TGI was 22 nM.

Values taken from PubChem BioAssay (NCI).
